# Data taken from patent US11583545B2, “Parasiticidal compositions comprising eprinomectin and praziquantel, methods and uses thereof” (BOEHRINGER INGELHEIM ANIMAL HEALTH USA INC., priority 2018, dated 2023).
# What was measured:
# [1] = Pharmacokinetic assessment in cats after administration of the formulation of Example 1; details: blood of cats; after administration of formulation of Example 1
# [2] = Stability study of topical solution in the market container (HPLC, 30° C./65% RH); format: physicochemical; details: in formulation of Example 1, two runs
# in vivo = details: cat
# [3] = in vivo
Compound,terminal half-life [1],average % label claim ([2]; time point 0 month),average % label claim ([2]; time point 3 months),average % label claim ([2]; time point 6 months),average % label claim ([2]; time point 9 months),average % label claim ([2]; time point 12 months),average % label claim ([2]; time point 18 months),half-life (in vivo),time at which Cmax is reached [3]
Eprinomectin,114 h,99.33 % LC,97.92 % LC,97.61 % LC,98.40 % LC,98.50 % LC,96.48 % LC,,
"O=C(C1CCCCC1)N1CC(=O)N2CCc3ccccc3C2C1 (stereo not drawn) [Praziquantel, praziquantel]",,99.52 % LC,97.38 % LC,97.74 % LC,98.44 % LC,98.36 % LC,97.04 % LC,73.9 h,6 h
